Measured values taken from patent publication US8450067B2, “Method for obtaining anti-idiotype antibodies” (Omrix Biopharmaceuticals Inc., priority 2002, dated 2013).

Legend:
[1] = test system: mice; conditions: cited from earlier work
[2] = test system: BALB/c neonatal mice; conditions: BALB/c neonatal mice immunized later with pCDR1 or the pathogenic auto-Ab; cited from earlier work
[3] = test system: immunoglobulin elution peak from a peptide column bound with peptide 707; experiment: ELISA of peptide column eluate with biotinylated peptides (707 column); assay type: binding, human; conditions: FIG. 4; biotinylated peptide 1 μg/ml
Experimental: (§1) To measure the binding efficacy of peptide column eluates (706 and 707) the following ELISA was performed:
(§2) Microtiter plates (Costar, USA) were coated overnight at 2-8° C. with 10 μg/ml NeutrAvidin (Pierce, USA) suspended in 0.1M, pH 8.8, of carbonate-bicarbonate buffer (Sigma USA). The coating solution was removed, washed three times with washing buffer (1×PBS) and 200 μl of blocking solution (freshly prepared 1% I Block, Tropix, USA) per well was added and incubated for 1 hour at 37° C. Coated and blocked plates can be stored at −20° C. for a month before use.
(§3) Tested samples diluted in the blocking solution were mixed in a separate tube with 1 μg/ml (final concentration) of the appropriate biotinylated peptide and the mixture was incubated for 1 hour at 37° C. 100 μl from each reaction tube was then transferred to the blocked microtiter plate and incubated at 37° C. for ½ hour. A 100 μl of 1:5000 Alkaline Phosphatase conjugate goat anti human IgG (Heavy and light chain from Jackson, USA) diluted in the blocking buffer was applied into the microtiter well and incubated for 1 hour. […] The measurement was done photometrically at 405 nm.

[4] = test system: immunoglobulin eluted from a peptide column bearing the peptide 706; experiment: ELISA of peptide column eluate with biotinylated peptides (706 column); assay type: binding, human; conditions: FIG. 3; biotinylated peptide 1 μg/ml
Experimental: as §1, §2, §3

[5] = test system: anti-dsDNA antibody-positive SLE sera; conditions: sera which cross react with ssDNA; cited from earlier work

binding of 707 column eluate to biotinylated peptide [3] | binding of 706 column eluate to biotinylated peptide [4] | Sequence | effect on disease in experimental SLE mice ([1]; experimental SLE mice) | induction of SLE-like disease in mice ([1]; responder mice (BALB/c, SJL)) | auto-Ab production [2] | share of anti-dsDNA antibody-positive SLE sera that recognize the peptide [5]
reacted | reacted specifically in a linear fashion | TGYYMQWVKQSPEKSLEWIG [Pep 706] | ameliorate the disease | induced a mild SLE-like disease | prevent auto-Ab production | 
 |  | RLTSSLRYNP [synthetic peptide mimotope of dsDNA (Sun et al. 2001)] |  |  |  | 88%
